Legend:
[1] = leading to a better tolerability profile; cited from earlier work
[2] = test system: patients with acute manic (including mixed) episode, bipolar I disorder; assay: Study BIA-2093-203: 3-week double-blind, randomised, placebo-controlled, dose-titration study in acute mania; format: in vivo, human; settings: for YMRS score absolute change from V2 (1 Day) to V7 (21 Days), Mean ± SD / YMRS score absolute change from V2 (1 Day) to V7 (21 Days), Median (range): ITT
Method: Two 3-week multicentre, double-blind, randomised, placebo-controlled studies in acute mania (study BIA-2093-203: dose titrated by response, eslicarbazepine acetate (ESL) 600-1800 mg or 800-2400 mg, once-daily; study BIA-2093-204: fixed doses of 600, 1200 and 1800 mg, once-daily) were followed by a recurrence prevention study consisting of a 2-week open-label period (900 mg, once-daily) continued by a double-blind, parallel-group, fixed dose (300, 900 and 1800 mg, once-daily) period for a minimum of 6 months. The primary endpoint was change in Young Mania Rating Scale (YMRS) in studies BIA-2093-203 and BIA-2093-204, and the proportion of no worsening patients in the Clinical Global Impressions-Bipolar Version (CGI-BP) in study BIA-2093-205.
Study BIA-2093-203 (EudraCT No 2005-002131-27) followed a multicentre, double-blind, randomised, parallel-group, placebo-controlled, dose-titration design.
This study was conducted at 23 centres across Europe. Patients were randomised (3:3:2) to one of the following treatment groups: (1) ESL starting with 800 mg once daily (QD) and up-titrated in 800 mg steps until 2400 mg QD (maximum dose) according to clinical response, (2) ESL starting with 600 mg QD and up-titrated in 600 mg steps until 1800 mg QD (maximum dose) according to clinical response, and (3) Placebo QD. Patients were followed for up to 3 weeks. The study schedule consisted of a screening visit (V1), randomisation visit (V2, Day 1), and subsequent visits to evaluate clinical response (V3, Day 4; V4, Day 7; V5, Day 10; V6, Day 14 and V7, Day 21). In patients showing no improvement of symptoms, the dose of study medication was increased every 3 days until the maximum doses were reached. […] At the end of the 3-week treatment period, patients who responded to treatment had the option of entering the recurrence prevention study (Study BIA-2093-205).
Studies BIA-2093-203 and BIA-2093-204 enrolled patients with ages ≧18 years, currently displaying an acute manic (including mixed) episode and with a documented diagnosis of bipolar I disorder according to the DSM-IV criteria (2). Eligible patients should have a Young Mania Rating Scale (YMRS) total score ≧20, with symptoms of the current manic episode starting within two weeks prior to randomization. Patients were excluded if they had history of schizophrenia or schizoaffective disorder, psychotic features or rapid cycling. Patients were also excluded if they were treated with carbamazepine, oxcarbazepine or a depot-neuroleptic. Previous treatment with ESL or history of unresponsiveness, intolerance or hypersensitivity to other dibenzazepine compounds (carbamazepine, oxcarbazepine or licarbazepine) also constituted criteria for exclusion. Patients with clinical relevant risk of harm to self or others and history of substance abuse were also excluded. Women were excluded if they were pregnant or breast-feeding, or if of childbearing potential they were unable to use double-barrier contraception.
The following validated instruments were used: YMRS (20), the Clinical Global Impressions-Bipolar Version (CGI-BP) scale (21) and the Montgomery-Åsberg Depression Rating Scale (MADRS) (22). The YMRS score is the sum of 11 scoring items, ranging from 0 to 60 points; higher scores indicate higher mania symptomatology (20). The CGI-BP scale measures severity and treatment-related improvement in mania, depression and overall illness categories. It comprises 3 scales: severity of illness (1—normal to 7—very severely ill, in which 3—mildly ill was used as cut-off value for statistical analysis), change from preceding phase and worst phase (1—very much improved to 7—very much worse, and 8—not applicable) (21). The MADRS score is calculated as the sum of the 10 scoring items, ranging from 0 to 60 points: higher scores indicate higher depression symptomatology (22). […]

[3] = ESL 600 mg (600-1800 mg QD titrated), n = 63
[4] = ESL 800 mg (800-2400 mg QD titrated), n = 57
[5] = ESL 800 mg, n = 57, only study 203

CC(=O)O[C@H]1Cc2ccccc2N(C(N)=O)c2ccccc21 [ESL, (S)-10-acetoxy-10,11-dihydro-5H-dibenz[b,f]azepine-5-carboxamide]
production of toxic metabolites compared to carbamazepine [1]: reduced production of toxic metabolites
MADRS scores under treatment with ESL as compared to placebo ([2]; ANCOVA showed no significant difference between the treatment groups at visit 7): apparent improvement
absolute difference between ESL treatment group and placebo for the YMRS total score ([2]; ESL 600 mg): 2.2
YMRS score absolute change from V2 (1 Day) to V7 (21 Days), Mean ± SD [2, 3]: −12.2 ± 7.9
YMRS score absolute change from V2 (1 Day) to V7 (21 Days), Median (range) [2, 3]: −14.0 (−25.0, 14.0)
CGI-BP score changes for mania and overall bipolar illness compared to placebo ([2]; ESL 600 mg group, from worst phase only): significant improvement
absolute difference between ESL treatment group and placebo for the YMRS total score ([2]; ESL 800 mg): 4.0
YMRS score absolute change from V2 (1 Day) to V7 (21 Days), Mean ± SD [2, 4]: −14.1 ± 8.9
YMRS score absolute change from V2 (1 Day) to V7 (21 Days), Median (range) [2, 4]: −16.0 (−33.0, 22.0)
CGI-BP score changes for mania and overall bipolar illness compared to placebo ([2]; ESL 800 mg group, from preceding and worst phase): significant improvement
proportion of patients in V7 classified as normal (CGI-BP severity of illness scale) vs placebo ([2]; ESL 800 mg group, mania and overall bipolar illness): significant differences
Any Adverse Events [2, 5]: 29 (50.9) Number (%) of patients
Diarrhoea [2, 5]: 2 (3.5) Number (%) of patients
Dizziness [2, 5]: 5 (8.8) Number (%) of patients
Headache [2, 5]: 5 (8.8) Number (%) of patients
Nausea [2, 5]: 4 (7.0) Number (%) of patients
Paraesthesia oral [2, 5]: 0 (0.0) Number (%) of patients
Somnolence [2, 5]: 1 (1.8) Number (%) of patients
Vomiting [2, 5]: 2 (3.5) Number (%) of patients
reduction in YMRS total score as compared with placebo, statistical significance ([2]; ESL 600-1800 mg and ESL 800-2400 mg groups): None of the treatment groups showed a reduction in YMRS total score as compared with placebo that was statistically significant
proportion of patients in full remission (YMRS score <12) at V7 compared to the placebo group ([2]; ESL 800-2400 mg group): significantly higher proportion of patients were in full remission
response rate (≧50% improvement or <12 points in the YMRS score) ([2]; ESL 800-2400 mg group): 66.7%
reduction in YMRS total score ([2]; ESL 800-2400 mg vs placebo −10.3 (p=0.0523)): −14.2

Reference: patent US20160051560A1, “TREATMENTS INVOLVING ESLICARBAZEPINE OR ESLICARBAZEPINE ACETATE” (BIAL - PORTELA & Cª, S.A., priority 2013, published 2016)
